Values joined by “and” are separate entries in the source; they are usually repeats but may differ in a detail not shown here. Identical values can stand only once. Toxic doses and inconclusive results are not listed.

The values that follow come from PubChem BioAssay AID328 (DTP/NCI, 2004).

In the assay the test system is BDF1 mice, P388 leukemia ip, median survival T/C. Briefly: NCI In Vivo Anticancer Drug Screen. Data for tumor model P388 Leukemia (intraperitoneal) in B6D2F1 (BDF1) mice. The conditions noted are these: endpoint: median survival time, higher = longer survival. Put shortly:
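Mice carrying the transplantable tumour receive compound or vehicle. Survival is followed in each arm, and the treated measure is divided by the vehicle measure.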

Where [1] appears, read: dose: 100.0 mg/kg/injection, schedule: Q04DX003 (ip), vehicle: Klucel (hydroxypropylcellulose) (HPC).
Setting [2] is: dose: 200.0 mg/kg/injection, schedule: Q04DX003 (ip), vehicle: Klucel (hydroxypropylcellulose) (HPC).
[3] abbreviates: dose: 400.0 mg/kg/injection, schedule: Q04DX003 (ip), vehicle: Klucel (hydroxypropylcellulose) (HPC).
The mark [4] stands for this setting: dose: 200.0 mg/kg/injection, schedule: Q04DX002 (ip), vehicle: saline with Tween-80.
Where [5] appears, read: dose: 200.0 mg/kg/injection, schedule: Q04DX003 (ip), vehicle: saline.
The mark [6] stands for this setting: dose: 6.25 mg/kg/injection, schedule: Q01DX009 (ip), vehicle: saline.
[7] abbreviates: dose: 50.0 mg/kg/injection, schedule: Q01DX009 (ip), vehicle: saline with Tween-80.
The mark [8] stands for this setting: dose: 25.0 mg/kg/injection, schedule: Q01DX009 (ip), vehicle: saline with Tween-80.

`CC(C)=NNC(=O)C1CCN1C(c1ccccc1)c1ccccc1` (centres undefined): the T/C was 117 % of control (dose: 50.0 mg/kg/injection, schedule: Q01DX001 (ip), vehicle: saline with Tween-80) and 102 % of control (dose: 100.0 mg/kg/injection, schedule: Q01DX001 (ip), vehicle: saline with Tween-80).

For the compound `COc1ccc(NC(=O)Oc2c(C(C)C)cccc2C(C)C)cc1`, the T/C under setting [1] was 100 % of control, the T/C under setting [2] is 91 % of control and the T/C under setting [3] is 100 % of control.

For the compound `Cc1cc(N(C)C)c(C=O)c(C)c1C=O`, the T/C is 113 % of control (dose: 100.0 mg/kg/injection, schedule: Q04DX002 (ip), vehicle: saline with Tween-80); 110 % of control under setting [4]; 87 % of control (dose: 400.0 mg/kg/injection, schedule: Q04DX002 (ip), vehicle: saline with Tween-80).

`COc1ccc(-c2oc3cc(O)c(OC)c(O)c3c(=O)c2OC)cc1O`: the T/C is 100 % of control (dose: 10.0 mg/kg/injection, schedule: Q01DX010 (ip), vehicle: saline); 100 % of control (dose: 20.0 mg/kg/injection, schedule: Q01DX010 (ip), vehicle: saline); 113 % of control (dose: 40.0 mg/kg/injection, schedule: Q01DX010 (ip), vehicle: saline).

As for `C[n+]1ccc(Nc2ccc(NC(=O)c3ccc(Nc4cc[n+](C)c5ccc([N+](=O)[O-])cc45)cc3[N+](=O)[O-])cc2)cc1`, the T/C was 105 % of control and 116 % of control (dose: 25.0 mg/kg/injection, schedule: Q04DX003 (ip), vehicle: saline); 158 % of control and 203 % of control under setting [5].

For `O=C(Nc1ccc(Nc2ccncc2)cc1)c1ccc([N+](=O)[O-])cc1`, the T/C is, setting by setting: under setting [1], 90 % of control; under setting [2], 90 % of control; under setting [3], 118 % of control.

`c1ccc2c(c1)[nH]c1c2c[n+]2c3c(cccc13)CCC2`: the T/C (dose: 3.13 mg/kg/injection, schedule: Q01DX009 (ip), vehicle: saline) was 119 % of control; the T/C (dose: 3.66 mg/kg/injection, schedule: Q01DX009 (ip), vehicle: saline) is 110 % of control; the T/C (dose: 5.49 mg/kg/injection, schedule: Q01DX009 (ip), vehicle: saline) was 105 % of control; the T/C under setting [6] is 104 % of control.

With `CC([OH2+])CNCCN.CC([OH2+])CNCCN.O=S(=O)([O-])[O-].[Cu+2]` (centres undefined), the T/C under setting [6] was 101 % of control; the T/C (dose: 12.5 mg/kg/injection, schedule: Q01DX009 (ip), vehicle: saline) was 91 % of control; the T/C (dose: 25.0 mg/kg/injection, schedule: Q01DX009 (ip), vehicle: saline) is 94 % of control.

Regarding `O=C1CCC([N+](=O)[O-])C(c2ccccc2Cl)N1` (centres undefined), the T/C is, setting by setting: under setting [7], 99 % of control; (dose: 100.0 mg/kg/injection, schedule: Q01DX009 (ip), vehicle: saline with Tween-80) 86 % of control; (dose: 200.0 mg/kg/injection, schedule: Q01DX009 (ip), vehicle: saline with Tween-80) 94 % of control.

`Cn1c2nc(=O)n(-c3ccccc3)c(=O)c-2nc2ccccc21`: the T/C runs as follows: (dose: 12.5 mg/kg/injection, schedule: Q01DX009 (ip), vehicle: saline with Tween-80) 95 % of control; under setting [8], 104 % of control; under setting [7], 91 % of control and 95 % of control.

For the compound `Cc1cc(C(=O)NN)nn1CCO`, the T/C is 89 % of control (dose: 87.5 mg/kg/injection, schedule: Q01DX009 (ip), vehicle: saline with Tween-80); 88 % of control (dose: 175.0 mg/kg/injection, schedule: Q01DX009 (ip), vehicle: saline with Tween-80); 114 % of control (dose: 350.0 mg/kg/injection, schedule: Q01DX009 (ip), vehicle: saline with Tween-80).

As to `O=S(=O)(F)c1cc(C[P+](c2ccccc2)(c2ccccc2)c2ccccc2)ccc1Cl`, the T/C is 109 % of control (dose: 2.0 mg/kg/injection, schedule: Q01DX009 (ip), vehicle: saline with Tween-80); 118 % of control (dose: 8.0 mg/kg/injection, schedule: Q01DX009 (ip), vehicle: Klucel (hydroxypropylcellulose) (HPC)); 123 % of control (dose: 8.0 mg/kg/injection, schedule: Q01DX009 (ip), vehicle: saline + alcohol); 115 % of control (dose: 12.0 mg/kg/injection, schedule: Q01DX009 (ip), vehicle: saline + alcohol); 123 % of control (dose: 18.0 mg/kg/injection, schedule: Q01DX009 (ip), vehicle: saline + alcohol); 110 % of control under setting [8].

On to `CC(Br)CNC(=O)c1ccc([N+](=O)[O-])cc1` (centres undefined), for which the T/C is, setting by setting: (dose: 25.0 mg/kg/injection, schedule: Q04DX003 (ip), vehicle: Klucel (hydroxypropylcellulose) (HPC)) 109 % of control; (dose: 50.0 mg/kg/injection, schedule: Q04DX003 (ip), vehicle: Klucel (hydroxypropylcellulose) (HPC)) 109 % of control; under setting [1], 100 % of control.

As to `COC(=O)Nc1nc2ccc(Br)cc2[nH]1`, the T/C reads like this: (dose: 100.0 mg/kg/injection, schedule: Q01DX009 (ip), vehicle: Klucel (hydroxypropylcellulose) (HPC)) 104 % of control; under setting [1], 109 % of control; (dose: 200.0 mg/kg/injection, schedule: Q01DX009 (ip), vehicle: Klucel (hydroxypropylcellulose) (HPC)) 112 % of control; under setting [2], 109 % of control; (dose: 400.0 mg/kg/injection, schedule: Q01DX009 (ip), vehicle: Klucel (hydroxypropylcellulose) (HPC)) 116 % of control; under setting [3], 113 % of control.

Turning to `COc1ccc2c(c1)CCC(CC(C)=O)C2=O` (centres undefined), the T/C is 104 % of control (dose: 100.0 mg/kg/injection, schedule: Q04DX003 (ip), vehicle: saline sonified); 104 % of control (dose: 200.0 mg/kg/injection, schedule: Q04DX003 (ip), vehicle: saline sonified); 104 % of control (dose: 400.0 mg/kg/injection, schedule: Q04DX003 (ip), vehicle: saline sonified).

Regarding `C[C@]12CC[C@H]3[C@@H](CCC4=C[C@@H](OC5OCC(OC6OC(CO)C(O)C(O)C6O)C(O)C5O)CC[C@@]43C=O)[C@@]1(O)CCC2C1=CC(=O)OC1` (some centres undefined), the T/C is, setting by setting: (dose: 2.5 mg/kg/injection, schedule: Q01DX009 (ip), vehicle: saline) 122 % of control; (dose: 5.0 mg/kg/injection, schedule: Q01DX009 (ip), vehicle: saline) 111 % of control.

With `Cc1ccc(C(c2ccc(C)cc2)C(Cl)(Cl)Cl)cc1`, the T/C reads like this: (dose: 100.0 mg/kg/injection, schedule: Q01DX001 (ip), vehicle: saline sonified) 100 % of control; (dose: 200.0 mg/kg/injection, schedule: Q01DX001 (ip), vehicle: saline sonified) 100 % of control; (dose: 400.0 mg/kg/injection, schedule: Q01DX001 (ip), vehicle: saline sonified) 90 % of control.

Regarding `O=C(Cn1cc(F)c(=O)[nH]c1=O)c1ccco1`, the T/C by setting is: (dose: 100.0 mg/kg/injection, schedule: Q01DX009 (ip), vehicle: saline) 100 % of control; (dose: 100.0 mg/kg/injection, schedule: Q04DX003 (ip), vehicle: saline) 111 % of control; (dose: 200.0 mg/kg/injection, schedule: Q01DX009 (ip), vehicle: saline) 95 % of control; under setting [5], 105 % of control and 122 % of control; (dose: 400.0 mg/kg/injection, schedule: Q01DX009 (ip), vehicle: saline) 100 % of control; (dose: 400.0 mg/kg/injection, schedule: Q04DX003 (ip), vehicle: saline) 86 % of control. Where the note is “dose: 600.0 mg/kg/injection, schedule: Q04DX003 (ip), vehicle: saline”, the T/C was 95 % of control.

As for `COc1ccccc1NC(=O)O/N=C/c1ccccn1`, the T/C is 100 % of control (dose: 100.0 mg/kg/injection, schedule: Q01DX001 (ip), vehicle: other); 95 % of control (dose: 200.0 mg/kg/injection, schedule: Q01DX001 (ip), vehicle: other); 95 % of control (dose: 400.0 mg/kg/injection, schedule: Q01DX001 (ip), vehicle: other).

For the compound `CCCCCCCCCCCCCC/[N+]([O-])=C/c1ccc([N+](=O)[O-])o1`, the T/C was 91 % of control (dose: 6.25 mg/kg/injection, schedule: Q04DX002 (ip), vehicle: saline with Tween-80); 100 % of control (dose: 12.5 mg/kg/injection, schedule: Q04DX002 (ip), vehicle: saline with Tween-80); 87 % of control (dose: 25.0 mg/kg/injection, schedule: Q04DX002 (ip), vehicle: saline with Tween-80); 88 % of control under setting [4].
